Data published in US20220089646A1 (THE UNIVERSITY OF QUEENSLAND, priority 2019, published 2022).
*1 amine or outer side, *2 acyl side, *3 side chain or, on linkers, in order; H or OH if unused. Where a SMILES comes first, the peptide text is derived from it. Bridges are numbered along the chain shown (N, C = ends). [ ]: non-standard residue; d: D form. NHCH2CMe2S = CC(C)(CN[*:1])S[*:2]

Assays:
[1] = biological target: T1, bovine pancreatic trypsin (Bos taurus, UniProt P00760); assay: Trypsin stability assay (Table 10); assay type: in vitro ADME; details: bovine pancreatic trypsin solution; bovine pancreatic trypsin 2.5 μg/mL, 37° C., One Phase Decay; read-out: Stability (t1/2, mins) Trypsin
T1 construct: from tissue; host or cells: bovine pancreas
T1 sequence (P00760 24-246): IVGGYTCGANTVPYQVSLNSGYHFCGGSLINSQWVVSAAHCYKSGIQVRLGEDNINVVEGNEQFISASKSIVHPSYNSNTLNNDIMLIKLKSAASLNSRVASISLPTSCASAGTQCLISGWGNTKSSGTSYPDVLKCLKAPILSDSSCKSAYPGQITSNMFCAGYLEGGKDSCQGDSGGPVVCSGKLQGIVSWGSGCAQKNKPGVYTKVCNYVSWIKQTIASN
From the text: (§1) FIG. 20 is a series of graphs showing the stability of selected peptides in a trypsin (left-hand graphs) and plasma (right-hand graphs) stability assay (data normalised to concentration of each peptide at t=0, determined by LCMS, within each substrate; data analysed using One Phase Decay nonlinear regression in Prism software and each experiment performed in triplicate; mean+/−SEM);
Plasma was collected in house from adult mixed-gender Wistar rats, prepared using 2% EDTA as per standard practice. Peptides were added to rat plasma samples at 37° C. (in a water bath) with final concentrations of 100 uM (1:9 peptide in water:plasma) and a 50 μL sample was immediately taken and precipitated in 150 μL cold acetonitrile (9:1 ACN:water). This sample became the baseline, or t=0 min sample. […] At each time point, the 50 μL of plasma collected was immediately added to cold ACN. Each collected plasma sample in ACN was directly vortexed for 30 seconds and then centrifuged at room temperature (13K rpm, 5 min). 150 μL of the supernatant was taken and directly placed in glass HPLC vials for LCMS analysis.
The protocol for the trypsin stability assay was very similar to the plasma stability assay discussed above. The only difference was the use of a trypsin solution (bovine pancreatic trypsin 2.5 μg/mL in NH4HCO3 buffer, pH approx. 8-8.5, 37° C.) instead of rat plasma. Volumes, times and preparation protocols were exactly as mentioned above.

[2] = Plasma stability assay (Table 10); assay type: in vitro ADME; details: both sexes, Wistar, rat plasma (EDTA), 37° C., 100 uM peptide, One Phase Decay, read-out: Stability (t1/2, mins) Plasma
From the text: as §1
The results shown in Table 10 utilized rat plasma. • Note that DP-7-11 and CP5 represent the same compound, and DP-7-12 and CP6 are the same compound. In this regard, a different regression analysis method was adopted on the above cAMP experiments. Particularly, a new non-linear regression (four-parameter) was adopted to better account for hill slope, thereby improving the regression fit.
Plasma was collected in house from adult mixed-gender Wistar rats, prepared using 2% EDTA as per standard practice. Peptides were added to rat plasma samples at 37° C. (in a water bath) with final concentrations of 100 uM (1:9 peptide in water:plasma) and a 50 μL sample was immediately taken and precipitated in 150 μL cold acetonitrile (9:1 ACN:water). This sample became the baseline, or t=0 min sample. Plasma with peptide was immediately returned to the water bath and subsequent 50 μL samples were taken at 5, 10, 15, 30, 60 and 120 min. At each time point, the 50 μL of plasma collected was immediately added to cold ACN. Each collected plasma sample in ACN was directly vortexed for 30 seconds and then centrifuged at room temperature (13K rpm, 5 min). 150 μL of the supernatant was taken and directly placed in glass HPLC vials for LCMS analysis.

KOP = KOP (Homo sapiens, UniProt P41145); assay: Statistics for each peptide | IC50 (nM)
Experimental: Table printed on a drawing sheet, FIG 12
Head of the field: Statistics for each peptide | IC50 (nM)
First copying reader's note: The table stands under a forest plot whose axis is labelled 'Mean IC50 ± 95% CI (nM)'; according to the description the IC50 values were measured in HEK-KOP cells.

KOP, sequence (P41145 whole entry, looked up): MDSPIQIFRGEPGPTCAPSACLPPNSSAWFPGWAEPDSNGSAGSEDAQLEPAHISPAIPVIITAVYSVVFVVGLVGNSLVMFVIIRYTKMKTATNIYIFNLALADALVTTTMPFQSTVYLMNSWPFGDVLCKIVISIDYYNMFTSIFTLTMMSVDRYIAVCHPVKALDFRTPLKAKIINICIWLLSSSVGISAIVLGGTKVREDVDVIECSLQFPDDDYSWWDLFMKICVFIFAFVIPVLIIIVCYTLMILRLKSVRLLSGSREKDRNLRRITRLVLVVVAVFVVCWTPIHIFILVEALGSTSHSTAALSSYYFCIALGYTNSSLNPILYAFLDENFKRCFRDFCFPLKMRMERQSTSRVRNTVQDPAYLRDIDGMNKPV

## CC1(C)CNC(=O)C[C@@H](NC(=O)[C@@H](N)Cc2ccc(O)cc2)C(=O)NCC(=O)N[C@@H](Cc2ccccc2)C(=O)N[C@H](C(=O)N[C@@H](CCCNC(=N)N)C(=O)N[C@@H](CCCNC(=N)N)C(N)=O)CSS1 [DP-7-12, c(Tyr-D(Asp)-Gly-Phe-SSa-Arg-Arg)] (H-Y[dD]GFCRR-NH2; linker 2-5 via NHCH2CMe2S)
[1]
  half-life: < 0.01 min
[2]
  half-life at 100 uM: 206 min
KOP
  IC50: 4.49 ± 1.59 nM
